Measured values from ChEMBL document CHEMBL5724914, “Linking interpersonal differences in gut microbiota composition and drug biotransformation activity” (2024).

Assays:
[1] = The drug is tested on Z-026 corresponding to metagenome with ENA study accession number: PRJEB37062 and ENA sample accession number: ERS12561825 for biotransformation under anaerobic condition. The drug concentrations were measured over 9 timepoints collected between 0 and 24 hours of incubation by liquid-chromatography-coupled mass spectrometry (LC–MS); settings: 2 µM
[2] = The drug is tested on Z-019 corresponding to rat gut metagenome with ENA study accession number: PRJEB37062 and ENA sample accession number: ERS12561818 for biotransformation under anaerobic condition. The drug concentrations were measured over 9 timepoints collected between 0 and 24 hours of incubation by liquid-chromatography-coupled mass spectrometry (LC–MS); settings: 2 µM
[3] = The drug is tested on Z-017 corresponding to mouse gut metagenome with ENA study accession number: PRJEB37062 and ENA sample accession number: ERS12561816 for biotransformation under anaerobic condition. The drug concentrations were measured over 9 timepoints collected between 0 and 24 hours of incubation by liquid-chromatography-coupled mass spectrometry (LC–MS); settings: 2 µM
[4] = The drug is tested on Z-014 corresponding to rat gut metagenome with ENA study accession number: PRJEB37062 and ENA sample accession number: ERS12561814 for biotransformation under anaerobic condition. The drug concentrations were measured over 9 timepoints collected between 0 and 24 hours of incubation by liquid-chromatography-coupled mass spectrometry (LC–MS); settings: 2 µM
[5] = The drug is tested on Z-013 corresponding to rabbit gut metagenome with ENA study accession number: PRJEB37062 and ENA sample accession number: ERS12561813 for biotransformation under anaerobic condition. The drug concentrations were measured over 9 timepoints collected between 0 and 24 hours of incubation by liquid-chromatography-coupled mass spectrometry (LC–MS); settings: 2 µM
[6] = The drug is tested on Z-006 corresponding to mouse gut metagenome with ENA study accession number: PRJEB37062 and ENA sample accession number: ERS12561806 for biotransformation under anaerobic condition. The drug concentrations were measured over 9 timepoints collected between 0 and 24 hours of incubation by liquid-chromatography-coupled mass spectrometry (LC–MS); settings: 2 µM
[7] = The drug is tested on WLS-240 corresponding to human gut metagenome with ENA study accession number: PRJEB37062 and ENA sample accession number: ERS12561773 for biotransformation under anaerobic condition. The drug concentrations were measured over 9 timepoints collected between 0 and 24 hours of incubation by liquid-chromatography-coupled mass spectrometry (LC–MS); settings: 2 µM
[8] = The drug is tested on WLS-170 corresponding to human gut metagenome with ENA study accession number: PRJEB37062 and ENA sample accession number: ERS12561762 for biotransformation under anaerobic condition. The drug concentrations were measured over 9 timepoints collected between 0 and 24 hours of incubation by liquid-chromatography-coupled mass spectrometry (LC–MS); settings: 2 µM
[9] = The drug is tested on WLS-077 corresponding to human gut metagenome with ENA study accession number: PRJEB37062 and ENA sample accession number: ERS12561750 for biotransformation under anaerobic condition. The drug concentrations were measured over 9 timepoints collected between 0 and 24 hours of incubation by liquid-chromatography-coupled mass spectrometry (LC–MS); settings: 2 µM
[10] = The drug is tested on WLS-027 corresponding to human gut metagenome with ENA study accession number: PRJEB37062 and ENA sample accession number: ERS12561744 for biotransformation under anaerobic condition. The drug concentrations were measured over 9 timepoints collected between 0 and 24 hours of incubation by liquid-chromatography-coupled mass spectrometry (LC–MS); settings: 2 µM
[11] = human gut metagenome, 24 h, 2 µM
[12] = human gut metagenome, 24 h, 2 µM; remark: listed apart in the source
[13] = human gut metagenome, 24 h, 2 µM; remark: listed apart in the source
[14] = human gut metagenome, 24 h, 2 µM; remark: listed apart in the source
[15] = human gut metagenome, 24 h, 2 µM; remark: listed apart in the source
[16] = human gut metagenome, 24 h, 2 µM; remark: listed apart in the source
[17] = human gut metagenome, 24 h, 2 µM; remark: listed apart in the source
[18] = human gut metagenome, 24 h, 2 µM; remark: listed apart in the source
[19] = human gut metagenome, 24 h, 2 µM; remark: listed apart in the source
[20] = human gut metagenome, 24 h, 2 µM; remark: listed apart in the source
Also: call rule not given here.

| Structure (SMILES) | Bacterial Biotransformation [1] | Bacterial Biotransformation [2] | Bacterial Biotransformation [3] | Bacterial Biotransformation [4] | Bacterial Biotransformation [5] | Bacterial Biotransformation [6] | Bacterial Biotransformation [7] | Bacterial Biotransformation [8] | Bacterial Biotransformation [9] | Bacterial Biotransformation [10] | Bacterial Biotransformation [11] | Bacterial Biotransformation [12] | Bacterial Biotransformation [13] | Bacterial Biotransformation [14] | Bacterial Biotransformation [15] | Bacterial Biotransformation [16] | Bacterial Biotransformation [17] | Bacterial Biotransformation [18] | Bacterial Biotransformation [19] | Bacterial Biotransformation [20] |
| --- | --- | --- | --- | --- | --- | --- | --- | --- | --- | --- | --- | --- | --- | --- | --- | --- | --- | --- | --- | --- |
| CCCc1nc2c(C)cc(-c3nc4ccccc4n3C)cc2n1Cc1ccc(-c2ccccc2C(=O)O)cc1 | Compound metabolized | Compound NOT metabolized | Compound metabolized | Compound metabolized | Compound metabolized | Compound metabolized | Compound metabolized | Compound metabolized | Compound metabolized | Compound metabolized | Compound metabolized | Compound metabolized | Compound metabolized | Compound metabolized | Compound metabolized | Compound metabolized | Compound metabolized | Compound metabolized | Compound metabolized | Compound metabolized |
| CCCCC(=O)N(Cc1ccc(-c2ccccc2-c2nnn[nH]2)cc1)[C@H](C(=O)O)C(C)C | Compound NOT metabolized | Compound NOT metabolized | Compound NOT metabolized | Compound NOT metabolized | Compound NOT metabolized | Compound NOT metabolized | Compound metabolized | Compound metabolized | Compound metabolized | Compound metabolized | Compound metabolized | Compound metabolized | Compound metabolized | Compound metabolized | Compound metabolized | Compound metabolized | Compound NOT metabolized | Compound NOT metabolized | Compound metabolized | Compound metabolized |
| Cc1cc2c(cc1S(N)(=O)=O)S(=O)(=O)CCC2 | Compound NOT metabolized | Compound NOT metabolized | Compound NOT metabolized | Compound NOT metabolized | Compound NOT metabolized | Compound NOT metabolized | Compound NOT metabolized | Compound NOT metabolized | Compound NOT metabolized | Compound NOT metabolized | Compound NOT metabolized | Compound NOT metabolized | Compound NOT metabolized | Compound NOT metabolized | Compound NOT metabolized | Compound NOT metabolized | Compound NOT metabolized | Compound NOT metabolized | Compound NOT metabolized | Compound NOT metabolized |
| CCC(COC(=O)c1cc(OC)c(OC)c(OC)c1)(c1ccccc1)N(C)C.O=C(O)/C=C\C(=O)O (stereo not given) | Compound NOT metabolized | Compound NOT metabolized | Compound NOT metabolized | Compound NOT metabolized | Compound NOT metabolized | Compound NOT metabolized | Compound metabolized | Compound metabolized | Compound NOT metabolized | Compound metabolized | Compound NOT metabolized | Compound metabolized | Compound metabolized | Compound NOT metabolized | Compound metabolized | Compound metabolized | Compound metabolized | Compound NOT metabolized | Compound metabolized | Compound metabolized |
| COc1ccc(CCN(C)CCCC(C#N)(c2ccc(OC)c(OC)c2)C(C)C)cc1OC (stereo not given) | Compound NOT metabolized | Compound NOT metabolized | Compound NOT metabolized | Compound NOT metabolized | Compound NOT metabolized | Compound NOT metabolized | Compound metabolized | Compound metabolized | Compound NOT metabolized | Compound metabolized | Compound NOT metabolized | Compound metabolized | Compound metabolized | Compound NOT metabolized | Compound metabolized | Compound metabolized | Compound metabolized | Compound NOT metabolized | Compound metabolized | Compound metabolized |
| CN1CC(=O)N2[C@H](c3ccc4c(c3)OCO4)c3[nH]c4ccccc4c3C[C@@H]2C1=O | Compound NOT metabolized | Compound NOT metabolized | Compound NOT metabolized | Compound NOT metabolized | Compound NOT metabolized | Compound NOT metabolized | Compound metabolized | Compound metabolized | Compound metabolized | Compound metabolized | Compound metabolized | Compound metabolized | Compound metabolized | Compound metabolized | Compound metabolized | Compound metabolized | Compound NOT metabolized | Compound NOT metabolized | Compound metabolized | Compound metabolized |
